Source: BindingDB's records for doi:10.1021/jm010294e (Novartis Institute For Biomedical Reasearch, 2001)
pIC50: −log10 of the molar value.

Target: Apolipoprotein B-100 (Homo sapiens, UniProt P04114)
Test: Inhibition of apolipoprotein B (apoB) secreted by human hepatoma cells (Hep G2) […]

Apolipoprotein B-100, sequence (P04114 whole entry C1422Y): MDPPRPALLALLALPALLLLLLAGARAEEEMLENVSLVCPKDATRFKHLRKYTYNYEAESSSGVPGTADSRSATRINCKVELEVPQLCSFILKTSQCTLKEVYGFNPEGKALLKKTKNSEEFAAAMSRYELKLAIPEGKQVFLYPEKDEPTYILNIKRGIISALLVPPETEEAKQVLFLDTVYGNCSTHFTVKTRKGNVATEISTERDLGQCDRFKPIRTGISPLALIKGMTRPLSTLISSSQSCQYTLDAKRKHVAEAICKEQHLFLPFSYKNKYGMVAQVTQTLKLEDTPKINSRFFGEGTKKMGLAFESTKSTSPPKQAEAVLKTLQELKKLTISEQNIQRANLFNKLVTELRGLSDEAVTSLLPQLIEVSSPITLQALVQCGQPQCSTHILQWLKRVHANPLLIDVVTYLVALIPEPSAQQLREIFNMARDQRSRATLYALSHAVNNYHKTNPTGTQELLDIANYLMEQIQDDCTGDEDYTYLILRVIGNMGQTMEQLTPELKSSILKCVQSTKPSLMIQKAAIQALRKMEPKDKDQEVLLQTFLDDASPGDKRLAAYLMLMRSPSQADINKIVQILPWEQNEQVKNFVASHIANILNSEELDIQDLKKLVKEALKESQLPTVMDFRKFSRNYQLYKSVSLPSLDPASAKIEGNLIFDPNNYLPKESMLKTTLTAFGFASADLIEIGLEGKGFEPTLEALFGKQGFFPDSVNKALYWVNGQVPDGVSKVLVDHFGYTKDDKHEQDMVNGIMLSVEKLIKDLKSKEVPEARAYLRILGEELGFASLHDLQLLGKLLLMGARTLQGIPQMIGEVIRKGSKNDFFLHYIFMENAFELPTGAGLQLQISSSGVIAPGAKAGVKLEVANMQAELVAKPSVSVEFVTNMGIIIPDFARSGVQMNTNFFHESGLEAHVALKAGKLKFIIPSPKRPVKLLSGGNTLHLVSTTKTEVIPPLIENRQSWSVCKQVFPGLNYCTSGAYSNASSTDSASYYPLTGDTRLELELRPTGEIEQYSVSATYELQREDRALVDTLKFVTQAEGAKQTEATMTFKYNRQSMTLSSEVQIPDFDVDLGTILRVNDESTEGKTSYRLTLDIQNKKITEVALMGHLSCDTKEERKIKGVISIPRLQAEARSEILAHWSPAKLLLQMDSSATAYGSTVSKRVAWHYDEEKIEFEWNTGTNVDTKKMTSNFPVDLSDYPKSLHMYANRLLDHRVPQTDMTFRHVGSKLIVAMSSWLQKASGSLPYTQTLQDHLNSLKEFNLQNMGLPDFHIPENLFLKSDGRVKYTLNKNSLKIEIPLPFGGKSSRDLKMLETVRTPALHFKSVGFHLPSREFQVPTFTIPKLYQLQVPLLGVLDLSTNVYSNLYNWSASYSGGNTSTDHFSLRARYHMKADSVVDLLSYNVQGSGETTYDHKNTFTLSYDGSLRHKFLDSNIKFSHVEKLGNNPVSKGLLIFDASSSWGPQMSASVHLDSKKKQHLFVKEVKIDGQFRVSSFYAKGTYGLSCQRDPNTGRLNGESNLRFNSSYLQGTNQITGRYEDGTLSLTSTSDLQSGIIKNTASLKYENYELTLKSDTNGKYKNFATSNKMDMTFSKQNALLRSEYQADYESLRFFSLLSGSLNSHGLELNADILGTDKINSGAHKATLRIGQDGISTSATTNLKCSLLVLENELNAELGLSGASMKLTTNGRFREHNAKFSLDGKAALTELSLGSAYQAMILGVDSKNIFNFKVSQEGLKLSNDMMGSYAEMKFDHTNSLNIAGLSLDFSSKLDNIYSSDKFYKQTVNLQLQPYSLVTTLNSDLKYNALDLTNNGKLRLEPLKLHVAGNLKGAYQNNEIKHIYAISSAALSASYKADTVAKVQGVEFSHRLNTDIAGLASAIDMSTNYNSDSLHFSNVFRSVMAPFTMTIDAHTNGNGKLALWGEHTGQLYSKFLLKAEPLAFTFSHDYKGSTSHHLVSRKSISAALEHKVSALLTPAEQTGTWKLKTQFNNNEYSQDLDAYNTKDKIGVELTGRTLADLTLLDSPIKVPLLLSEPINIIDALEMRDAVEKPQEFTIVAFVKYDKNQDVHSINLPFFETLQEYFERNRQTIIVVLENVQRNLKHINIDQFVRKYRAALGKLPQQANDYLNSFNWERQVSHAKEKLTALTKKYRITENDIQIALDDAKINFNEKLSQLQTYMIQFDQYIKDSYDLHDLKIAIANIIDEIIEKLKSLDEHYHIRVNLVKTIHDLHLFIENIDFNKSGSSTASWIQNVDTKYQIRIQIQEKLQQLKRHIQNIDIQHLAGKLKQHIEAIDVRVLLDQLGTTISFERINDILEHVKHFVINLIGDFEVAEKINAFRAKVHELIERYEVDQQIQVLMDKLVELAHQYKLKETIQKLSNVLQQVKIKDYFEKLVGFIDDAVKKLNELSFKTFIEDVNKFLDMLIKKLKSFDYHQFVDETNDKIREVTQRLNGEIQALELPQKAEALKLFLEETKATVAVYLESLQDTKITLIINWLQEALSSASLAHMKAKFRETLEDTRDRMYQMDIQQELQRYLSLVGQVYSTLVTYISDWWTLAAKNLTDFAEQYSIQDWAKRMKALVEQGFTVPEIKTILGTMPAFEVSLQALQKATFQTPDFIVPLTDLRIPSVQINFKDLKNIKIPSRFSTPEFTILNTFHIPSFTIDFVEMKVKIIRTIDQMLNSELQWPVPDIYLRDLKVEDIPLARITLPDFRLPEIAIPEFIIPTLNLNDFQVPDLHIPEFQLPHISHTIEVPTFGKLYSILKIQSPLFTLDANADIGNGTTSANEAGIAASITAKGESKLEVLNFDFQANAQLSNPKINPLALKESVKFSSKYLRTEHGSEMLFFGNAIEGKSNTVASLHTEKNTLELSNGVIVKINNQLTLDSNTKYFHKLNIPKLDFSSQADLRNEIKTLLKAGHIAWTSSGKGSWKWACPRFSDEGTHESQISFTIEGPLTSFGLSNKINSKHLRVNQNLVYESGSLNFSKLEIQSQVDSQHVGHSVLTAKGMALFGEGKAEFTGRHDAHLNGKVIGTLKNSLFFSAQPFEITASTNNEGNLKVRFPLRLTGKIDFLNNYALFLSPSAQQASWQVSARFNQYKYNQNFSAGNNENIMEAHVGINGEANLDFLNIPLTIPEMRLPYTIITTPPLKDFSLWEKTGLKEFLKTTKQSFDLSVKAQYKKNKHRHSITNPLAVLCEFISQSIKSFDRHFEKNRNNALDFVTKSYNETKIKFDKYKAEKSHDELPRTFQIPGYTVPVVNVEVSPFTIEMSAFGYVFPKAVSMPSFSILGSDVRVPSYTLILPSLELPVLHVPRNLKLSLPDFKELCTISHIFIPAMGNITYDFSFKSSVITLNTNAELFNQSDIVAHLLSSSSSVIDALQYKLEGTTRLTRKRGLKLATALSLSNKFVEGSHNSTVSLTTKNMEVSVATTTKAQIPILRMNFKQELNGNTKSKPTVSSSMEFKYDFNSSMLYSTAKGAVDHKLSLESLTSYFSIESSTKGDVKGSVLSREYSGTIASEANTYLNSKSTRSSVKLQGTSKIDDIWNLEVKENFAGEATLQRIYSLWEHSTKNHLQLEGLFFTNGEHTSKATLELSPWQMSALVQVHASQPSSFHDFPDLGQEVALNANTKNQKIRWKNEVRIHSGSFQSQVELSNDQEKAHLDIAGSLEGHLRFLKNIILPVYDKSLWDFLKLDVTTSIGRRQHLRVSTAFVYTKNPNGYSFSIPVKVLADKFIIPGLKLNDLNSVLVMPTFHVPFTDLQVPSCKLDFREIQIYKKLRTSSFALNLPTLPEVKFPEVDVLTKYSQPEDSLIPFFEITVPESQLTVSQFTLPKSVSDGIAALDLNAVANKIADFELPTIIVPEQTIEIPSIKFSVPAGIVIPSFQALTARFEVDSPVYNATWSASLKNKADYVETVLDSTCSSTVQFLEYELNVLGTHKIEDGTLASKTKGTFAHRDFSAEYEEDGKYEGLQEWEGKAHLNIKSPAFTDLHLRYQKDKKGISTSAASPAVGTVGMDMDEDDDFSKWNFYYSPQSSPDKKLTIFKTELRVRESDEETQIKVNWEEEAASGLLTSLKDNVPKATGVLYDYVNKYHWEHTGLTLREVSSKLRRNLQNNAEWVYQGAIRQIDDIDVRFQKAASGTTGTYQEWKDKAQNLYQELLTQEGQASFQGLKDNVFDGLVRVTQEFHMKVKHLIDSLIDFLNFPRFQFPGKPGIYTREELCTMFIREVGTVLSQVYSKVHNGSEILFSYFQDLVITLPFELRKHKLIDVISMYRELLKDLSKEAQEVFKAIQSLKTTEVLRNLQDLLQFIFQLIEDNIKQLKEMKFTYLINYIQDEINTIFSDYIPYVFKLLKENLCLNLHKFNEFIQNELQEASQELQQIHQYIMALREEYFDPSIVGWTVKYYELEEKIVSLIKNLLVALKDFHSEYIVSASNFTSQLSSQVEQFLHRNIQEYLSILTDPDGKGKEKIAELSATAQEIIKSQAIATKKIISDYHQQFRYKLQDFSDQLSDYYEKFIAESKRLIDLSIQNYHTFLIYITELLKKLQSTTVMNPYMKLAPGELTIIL

pIC50	Structure (SMILES)
8.47	COC(=O)NC1Cc2ccc(NC(=O)c3cc(C)cc(C)c3-c3ccc(Cl)cc3)cc2C1 (configuration not stated) [{5-[(4'-Chloro-4,6-dimethyl-biphenyl-2-carbonyl)-amino]-indan-2-yl}-carbamic acid methyl ester]
8.06	COC(=O)NCC1Cc2ccc(NC(=O)c3cccc(C)c3-c3ccc(Cl)cc3)cc2C1 (configuration not stated) [{5-[(4'-Chloro-6-methyl-biphenyl-2-carbonyl)-amino]-indan-2-ylmethyl}-carbamic acid methyl ester]
8.28	COC(=O)N[C@@H]1Cc2ccc(NC(=O)c3ccccc3-c3ccc(C(F)(F)F)cc3)cc2C1 [{5-[(4'-Trifluoromethyl-biphenyl-2-carbonyl)-amino]-indan-2-yl}-carbamic acid methyl ester]
8.72	COC(=O)N[C@H]1Cc2ccc(NC(=O)c3ccccc3-c3ccc(C(F)(F)F)cc3)cc2C1 [{5-[(4'-Trifluoromethyl-biphenyl-2-carbonyl)-amino]-indan-2-yl}-carbamic acid methyl ester]
8.12	COC(=O)N[C@H]1Cc2ccc(NC(=O)c3cc(C(F)(F)F)ccc3-c3ccc(C(F)(F)F)cc3)cc2C1 [{5-[(4,4'-Bis-trifluoromethyl-biphenyl-2-carbonyl)-amino]-indan-2-yl}-carbamic acid methyl ester]
8.66	COC(=O)NCC1Cc2ccc(NC(=O)c3cc(C)cc(C)c3-c3ccc(C(F)(F)F)cc3)cc2C1 (configuration not stated) [{5-[(4,6-Dimethyl-4'-trifluoromethyl-biphenyl-2-carbonyl)-amino]-indan-2-ylmethyl}-carbamic acid methyl ester]
8.60	COC(=O)N[C@@H]1Cc2ccc(NC(=O)c3cc(C)cc(C)c3-c3ccc(C(F)(F)F)cc3)cc2C1 [{5-[(4,6-Dimethyl-4'-trifluoromethyl-biphenyl-2-carbonyl)-amino]-indan-2-yl}-carbamic acid methyl ester]
8.96	COC(=O)N[C@H]1Cc2ccc(NC(=O)c3cc(C)cc(C)c3-c3ccc(C(F)(F)F)cc3)cc2C1 [{5-[(4,6-Dimethyl-4'-trifluoromethyl-biphenyl-2-carbonyl)-amino]-indan-2-yl}-carbamic acid methyl ester]
8.66	COC(=O)N[C@H]1Cc2ccc(NC(=O)c3cc(C)ccc3-c3ccc(C(F)(F)F)cc3)cc2C1 [{5-[(4-Methyl-4'-trifluoromethyl-biphenyl-2-carbonyl)-amino]-indan-2-yl}-carbamic acid methyl ester]
8.74	COC(=O)N[C@H]1Cc2ccc(NC(=O)c3cccc(C(F)(F)F)c3-c3ccc(C(F)(F)F)cc3)cc2C1 [{5-[(6,4'-Bis-trifluoromethyl-biphenyl-2-carbonyl)-amino]-indan-2-yl}-carbamic acid methyl ester]
8.39	COC(=O)NCC1Cc2ccc(NC(=O)c3cccc(C)c3-c3ccc(C(F)(F)F)cc3)cc2C1 (configuration not stated) [{5-[(6-Methyl-4'-trifluoromethyl-biphenyl-2-carbonyl)-amino]-indan-2-ylmethyl}-carbamic acid methyl ester]
9.15	COC(=O)N[C@H]1Cc2ccc(NC(=O)c3cccc(C)c3-c3ccc(C(F)(F)F)cc3)cc2C1 [{5-[(6-Methyl-4'-trifluoromethyl-biphenyl-2-carbonyl)-amino]-indan-2-yl}-carbamic acid methyl ester]
